{"source": "patent EP4186382A1", "about": "“MESH MATERIALS FOR CONTROLLED RELEASE OF ANTIVIRALS, METHOD AND USE” (Universidade Federal de Minas Gerais, priority 2020, dated 2022)", "key": {"[1]": {"tested_on": "Coronavirus (MHV-3 Strain)", "format": "cell-based, Coronavirus MHV-3 Strain genus Betacoronavirus"}, "[2]": {"test": "Solubility in water when preparing calibration standards", "format": "physicochemical", "procedure": "The calibration curve used the following standards: Standard #1 - 99.5% chlorhexidine (CAS 55-56-1) from Sigma-Aldrich, Standard #2 - 20% solution of chlorhexidine digluconate in solution (CAS 18472-51-0). Samples with both standards were prepared in deionized water. […] With Standard #2 it was possible to obtain a good reproducibility of the areas; therefore, it was decided to perform the calibration curve with standard #2."}}, "note": "Where “and” joins values, the source holds several entries; their conditions need not be identical. Equal values may be shown once. Read-outs that look alike come from different tables or passages of the source.", "data": [{"smiles": "N=C(NCCCCCCNC(=N)NC(=N)Nc1ccc(Cl)cc1)NC(=N)Nc1ccc(Cl)cc1", "note": "[5% Chlorhexidine, 1,1'-hexamethylene-bis(5-(p-chlorophenyl)-biguanide)]", "values": [{"measurement": "time after which activity was lost", "setting": "[1]; concentration of 5%", "value": "≤ 10", "unit": "min"}, {"measurement": "Infectivity Reduction (Virus Titer 10^8/mL)", "setting": "[1]; contact time 1 minute", "value": "10^4"}, {"measurement": "Coronavirus (MHV-3 Strain) inactivation", "setting": "[1]; contact time 1 minute, listed as Chlorhexidine 5.0%", "value": 99.99, "unit": "%"}, {"measurement": "Infectivity Reduction (Virus Titer 10^8/mL)", "setting": "[1]; contact time 5 minutes", "value": "10^4"}, {"measurement": "Coronavirus (MHV-3 Strain) inactivation", "setting": "[1]; contact time 5 minutes, listed as Chlorhexidine 5.0%", "value": 99.99, "unit": "%"}, {"measurement": "Coronavirus (MHV-3 Strain) inactivation", "setting": "[1]; contact time 10 minutes", "value": "99.9% and 99.99%"}, {"measurement": "Infectivity Reduction (Virus Titer 10^8/mL)", "setting": "[1]; contact time 10 minutes", "value": "10^5"}, {"measurement": "Coronavirus (MHV-3 Strain) inactivation", "setting": "[1]; contact time 10 minutes, listed as Chlorhexidine 5.0%", "value": 99.9, "unit": "%"}, {"measurement": "Coronavirus (MHV-3 Strain) inactivation", "setting": "[1]; contact time 1 hour", "value": "Not effective"}, {"measurement": "Coronavirus (MHV-3 Strain) inactivation", "setting": "[1]; contact time 4 hours", "value": "Not effective"}, {"measurement": "Coronavirus (MHV-3 Strain) inactivation", "setting": "[1]; contact time Immediate", "value": "Not Effective"}]}, {"smiles": "[H]/N=C(\\N/C(=N/[H])NCCCCCCNC(=N)NC(=N)Nc1ccc(Cl)cc1)Nc1ccc(Cl)cc1", "note": "[Chlorhexidine, 1,1'-hexamethylene-bis(5-(p-chlorophenyl)-biguanide)]", "values": [{"measurement": "solubility in water", "setting": "[2]", "value": "very low solubility in water"}]}, {"smiles": "N=C(NCCCCCCNC(=N)NC(=N)Nc1ccc(Cl)cc1)NC(=N)Nc1ccc(Cl)cc1.O=C(O)[C@H](O)[C@@H](O)[C@H](O)[C@H](O)CO.O=C(O)[C@H](O)[C@@H](O)[C@H](O)[C@H](O)CO", "note": "[chlorhexidine digluconate]", "values": [{"measurement": "solubility in water", "setting": "[2]; deionized water", "value": "no solubility problems"}]}]}
